# Results published in patent publication US20100137239A1, “GEMCITABINE COMBINATION THERAPY” (GLOUCESTER PHARMACEUTICALS, priority 2006, published 2010).
# “And” between values parts separate entries of the source, which are not always exact repeats. Identical values can stand only once.
# Key:
# [1] = BxPC-3 study: animal weight and drug toxicity
# From the text: Model Information—Female nude mice (nu/nu) between 5 and 6 weeks of age weighing approximately 20 grams were obtained from Harlan, Inc. (Madison, Wis.). PANC-1, obtained from the ATCC, is a pancreas tumor cell line originating from a person^(1-2). BxPC-3, obtained from the American Type Culture Collection (ATCC), is a pancreas tumor cell line originating from a person^(3-4). PANC-1 Study: Animals were implanted subcutaneously (SC) by trocar with fragments of PANC-1 harvested from SC growing tumors in nude mice hosts. When tumors grew to approximately 135 cubic millimeters (mm^3) in size (17 days following implantation, animals were pair-matched by tumor size into treatment and control groups; each treatment group contained nine mice. BxPC-3 Study: Animals were implanted subcutaneously (SC) by trocar with fragments of BxPC-3 harvested from SC growing tumors in nude mice hosts. When tumors grew to approximately 85 cubic millimeters (mm^3) in size (19 days following implantation), animals were pair-matched by tumor size into treatment and control groups; each treatment group contained nine mice. Animals in both studies were ear-tagged and followed individually throughout the experiment.
# Study Design and Dosing—Initial doses were administered on Day 1 following pair-matching; both experiments were carried out as tumor growth inhibition (TGT) studies. Animals were dosed intravenously (IV) via tail vein with FK228 once every four days for three treatments (Q4Dx3) or by intraperitoneal (IP) injection with gemcitabine once every three days for four treatments (Q3Dx4), either alone or in combination, at the doses listed below (Table 1). To serve as a negative control, FK228 vehicle (2% ethanol, 8% propylene glycol, 90% 0.9% saline) was injected on a Q4Dx3 schedule.
# Animal Weights—Individual and group mean weights ±SD and percent weight change through Day 25 (PANC-1) or Day 29 (BxPC-3) were recorded twice weekly until study completion beginning Day 1. Final group mean weights ±SD and group nadir values are reported; weight data from individual animals experiencing technical or drug-related deaths was censored from final group calculations.
# Moribundity/Mortality—Animals were observed twice weekly for general moribundity and daily for mortality. Animal deaths were assessed as drug-related or technical based on factors including gross observation and weight loss; reported animal death information includes type, number, and day of death for each group.
# Statistics—Statistical analyses were carried out between treated and control groups comparing final weight, percent weight change, and tumor growth inhibition (Appendix III). For these groups, a two-tailed One-Way Analysis of Variance (ANOVA) followed by the Dunnett multiple comparisons test was employed. All analyses are performed using GraphPad Prism® software (version 4.0). Weight and tumor data from individual animals experiencing technical or drug-related deaths was censored from analysis.
# [2] = system: Panc-1 human pancreas tumors; experiment: Panc-1 mouse xenograft tumor growth (Example 1); format: in vivo; conditions: for tumor growth inhibition: Panc-1 xenograft in female nude mice, FK228 IV Q4Dx3, gemcitabine IP Q3Dx4, vs vehicle control
# Experimental: In this study, female nude mice were implanted subcutaneously (SC) by trocar with Panc-1 tumor fragments harvested from SC growing tumors in nude mice hosts. […] The day of treatment initiation was specified as Day 1. Vehicle control and FK228 were administered intravenously on a Q4Dx3 schedule (Days 1, 5, and 9). Gemcitabine was administered by an intraperitoneal injection on a Q3Dx4 schedule (Days 1, 4, 7, 10). Tumors were measured by Vernier calipers twice weekly.
# [3] = system: c-Myc; experiment: Immunoblot of c-Myc in PANC-1 xenograft tumors after treatment; format: in vivo, human; conditions: FK228 5 mg/kg Q4Dx3; gemcitabine 80 mg/kg Q3Dx4; tumors at study completion; actin-normalized, vs controls
# Experimental: Abstract: To examine activity and mechanism of FK228, antitumor efficacy was tested in PANC-1 pancreatic adenocarcinoma model representing transformed Ras, either as a single agent or in combination with gemcitabine. Following PANC-1 study completion, tumor and sera were obtained from: • the vehicle control; • FK228 dosed at 5 mg/kg once every four days for three treatments (Q4Dx3); • Gemcitabine at 80 mg/kg (Q3Dx4); and • the drug combination. Expression of c-Myc, acetylated histones 3 and 4, and p21^waf1 was compared between control and FK228 groups by immunoblotting and was quantified following actin normalization. Serum levels of putative tumor products b-FGF and MMP-2 were quantified by human-specific ELISA. […]
# Tissue Biomarkers: Tumor levels of acetylated histone-4, histone-4, c-Myc, p21waf and β-actin were quantified by immunoblotting as described. […] The chemiluminescence signal was captured by autoradiography, quantified by densitometry and expressed as a ratio of actin in each sample lane. For each biomarker, means and standard errors were calculated in each treatment group. […]
# Expression of c-Myc, acetylated histones 3 and 4, and p21^waf1 was compared between control and FK228 groups by immunoblotting and was quantified following actin normalization. Serum levels of putative tumor products b-FGF and MMP-2 were quantified by human-specific ELISA. […]
# [4] = FK228 2.5 mg/kg IV Q4Dx3, 2.5 mg/kg
# [5] = FK228 5 mg/kg IV Q4Dx3, 5 mg/kg
smiles,measurement,setting,value
"Nc1ccn([C@@H]2O[C@H](CO)[C@@H](O)C2(F)F)c(=O)n1 [Gemcitabine, gemcitabine]",DRUG DEATHS TOTAL,[1]; Gemcitabine 40 mg/kg IP Q3Dx4,0/9 and 0
same,FINAL WEIGHT (DAY 29) % CHANGE,[1]; Gemcitabine 40 mg/kg IP Q3Dx4,+9%
same,weight loss (nadir),[1]; Gemcitabine 40 mg/kg IP Q3Dx4,No weight loss
same,DRUG DEATHS TOTAL,[1]; Gemcitabine 80 mg/kg IP Q3Dx4,0/9 and 0
same,FINAL WEIGHT (DAY 29) % CHANGE,[1]; Gemcitabine 80 mg/kg IP Q3Dx4,+1%
same,FINAL WEIGHT (DAY 29) MEAN(G) ± SD,[1]; Gemcitabine 80 mg/kg IP Q3Dx4,22±4 G and 22 + 4 G
same,WEIGHT NADIR % CHANGE,[1]; Gemcitabine 80 mg/kg IP Q3Dx4,−9%
same,WEIGHT NADIR DAY,[1]; Gemcitabine 80 mg/kg IP Q3Dx4,11
same,tumor growth inhibition,[2],50%
same,animals with tumor regression,"[2]; Panc-1 xenograft, N=9 mice per group",no regression
same,inhibition of c-Myc expression,[3],50%
"C/C=C1\NC(=O)[C@H]2CSSCC/C=C/[C@H](CC(=O)N[C@H](C(C)C)C(=O)N2)OC(=O)[C@H](C(C)C)NC1=O [FK228, romidepsin]",FINAL WEIGHT (DAY 29) % CHANGE,[1]; FK228 2.5 mg/kg IV Q4Dx3,+10%
same,WEIGHT NADIR % CHANGE,[1]; FK228 2.5 mg/kg IV Q4Dx3,−5%
same,WEIGHT NADIR DAY,[1]; FK228 2.5 mg/kg IV Q4Dx3,11
same,DRUG DEATHS TOTAL,[1]; [4],0/9 and 0
same,FINAL WEIGHT (DAY 29) MEAN(G) ± SD,[1]; [4],25±2 G
same,FINAL WEIGHT (DAY 29) % CHANGE,[1]; FK228 5 mg/kg IV Q4Dx3,+7%
same,WEIGHT NADIR % CHANGE,[1]; FK228 5 mg/kg IV Q4Dx3,−15%
same,WEIGHT NADIR DAY,[1]; FK228 5 mg/kg IV Q4Dx3,11
same,DRUG DEATHS TOTAL,[1]; [5],0/9 and 0
same,FINAL WEIGHT (DAY 29) MEAN(G) ± SD,[1]; [5],24±1 G
same,tumor growth inhibition,[2],26%
same,inhibition of c-Myc expression,[3],50%
